According to the supplement of paper PMC10307832:

Experiments:
Experiment in all cases: relative viability (nuclei count vs DMSO), 5 days (fraction); higher = more cells survive
Venetoclax + Tozasertib = compound: CC1(C)CCC(CN2CCN(c3ccc(C(=O)NS(=O)(=O)c4ccc(NCC5CCOCC5)c([N+](=O)[O-])c4)c(Oc4cnc5[nH]ccc5c4)c3)CC2)=C(c2ccc(Cl)cc2)C1 [Venetoclax] + Cc1cc(Nc2cc(N3CCN(C)CC3)nc(Sc3ccc(NC(=O)C4CC4)cc3)n2)n[nH]1 [Tozasertib] (partner 0.1 µM)
Method in brief: (§1)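 Lung cancer cell lines were seeded in 1536-well plates and dosed by pin tool the next day, with either a single drug or a fixed anchor-drug dose combined with five library-drug doses (not always all listed) spaced in √10 steps. Five days later, one step fixed the cells and stained their nuclei (final 0.05% Triton X-100, 1% formaldehyde, 1 ug/ml Hoechst), and nuclei were counted on 4× images. Relative viability is the nuclei count in treated wells divided by the count in vehicle wells, and each value is the median of duplicate plates.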

[1] = compound: Cn1cnc2c(F)c(Nc3ccc(Br)cc3Cl)c(C(=O)NOCCO)cc21 [Selumetinib] + CC(=O)c1c(C)c2cnc(Nc3ccc(N4CCNCC4)cn3)nc2n(C2CCCC2)c1=O [Palbociclib] (partner 0.5 µM)
Method in brief: as §1

Selumetinib + Navitoclax = compound: Cn1cnc2c(F)c(Nc3ccc(Br)cc3Cl)c(C(=O)NOCCO)cc21 [Selumetinib] + CC1(C)CCC(c2ccc(Cl)cc2)=C(CN2CCN(c3ccc(C(=O)NS(=O)(=O)c4ccc(N[C@H](CCN5CCOCC5)CSc5ccccc5)c(S(=O)(=O)C(F)(F)F)c4)cc3)CC2)C1 [Navitoclax] (partner 0.5 µM)
Method in brief: as §1

Selumetinib + Linsitinib = compound: Cn1cnc2c(F)c(Nc3ccc(Br)cc3Cl)c(C(=O)NOCCO)cc21 [Selumetinib] + C[C@]1(O)C[C@@H](c2nc(-c3ccc4ccc(-c5ccccc5)nc4c3)c3c(N)nccn32)C1 [Linsitinib] (partner 1 µM)
Method in brief: as §1

Row | Cell Line | relative viability (Venetoclax + Tozasertib; first compound 0.01 µM) | relative viability (Venetoclax + Tozasertib; first compound 0.03162 µM) | relative viability (Venetoclax + Tozasertib; first compound 0.1 µM) | relative viability (Venetoclax + Tozasertib; first compound 0.3162 µM) | relative viability (Venetoclax + Tozasertib; first compound 1 µM) | relative viability ([1]; first compound 0.02 µM) | relative viability ([1]; first compound 0.06325 µM) | relative viability ([1]; first compound 0.2 µM) | relative viability ([1]; first compound 0.6325 µM) | relative viability (Selumetinib + Navitoclax; first compound 0.02 µM) | relative viability (Selumetinib + Navitoclax; first compound 0.06325 µM) | relative viability (Selumetinib + Navitoclax; first compound 0.2 µM) | relative viability (Selumetinib + Navitoclax; first compound 0.6325 µM) | relative viability (Selumetinib + Linsitinib; first compound 0.02 µM) | relative viability (Selumetinib + Linsitinib; first compound 0.06325 µM) | relative viability (Selumetinib + Linsitinib; first compound 0.2 µM) | relative viability (Selumetinib + Linsitinib; first compound 0.6325 µM)
1 | NCI-H2009 | 0.775 | 0.748 | 0.743 | 0.759 | 0.538 | 0.15 | 0.136 | 0.122 | 0.143 | 1.07 | 0.935 | 0.673 | 0.554 | 1.07 | 0.842 | 0.562 | 0.489
2 | CAL-12T | 0.302 | 0.346 | 0.28 | 0.222 | 0.19 | 0.385 | 0.26 | 0.222 | 0.191 | 1.28 | 1.36 | 0.986 | 0.921 | 0.821 | 0.762 | 0.663 | 0.588
3 | NCI-H1623 | 0.444 | 0.506 | 0.411 | 0.411 | 0.403 |  |  |  |  |  |  |  |  |  |  |  | 
4 | HCC-78 | 0.349 | 0.454 | 1.29 | 0.404 | 0.497 | 0.486 | 0.488 | 0.498 | 0.423 | 0.77 | 0.758 | 0.69 | 0.738 | 0.446 | 0.402 | 0.419 | 0.378
5 | EKVX | 0.403 | 0.392 | 0.435 | 0.324 | 0.309 | 0.285 | 0.278 | 0.227 | 0.186 | 0.689 | 0.82 | 0.559 | 0.487 | 0.864 | 0.912 | 0.749 | 0.711
6 | NCI-H1703 |  |  |  |  |  |  |  |  |  | 1.12 | 0.875 | 1.29 | 1.1 | 0.75 | 0.637 | 0.67 | 0.824
7 | NCI-H1944 | 0.267 | 0.246 | 0.238 | 0.273 | 0.228 | 0.303 | 0.312 | 0.253 | 0.231 | 0.97 | 0.945 | 0.756 | 0.779 | 0.979 | 0.928 | 0.762 | 0.687
8 | NCI-H1755 | 0.569 | 0.504 | 0.586 | 0.593 | 0.547 | 0.41 | 0.437 | 0.444 | 0.422 | 1.03 | 0.986 | 0.961 | 0.948 | 0.95 | 0.852 | 0.845 | 0.848
9 | Calu-6 |  |  |  |  |  |  |  |  |  | 0.727 | 0.513 | 0.355 | 0.234 | 1.03 | 0.77 | 0.522 | 0.362
10 | EBC-1 |  |  |  |  |  |  |  |  |  | 0.225 | 0.19 | 0.193 | 0.138 | 0.917 | 0.844 | 0.933 | 0.518
11 | EPLC-272H | 0.339 | 0.391 | 0.311 | 0.452 | 0.336 | 0.271 | 0.256 | 0.287 | 0.232 | 0.791 | 0.942 | 0.76 | 0.843 | 0.968 | 1.09 | 0.848 | 1.06
12 | A-427 | 0.203 | 0.24 | 0.212 | 0.201 | 0.186 | 0.503 | 0.496 | 0.51 | 0.538 | 1.02 | 0.868 | 0.76 | 0.68 | 1.16 | 1.09 | 1.02 | 0.925
13 | NCI-H3122 | 0.422 | 0.565 | 0.357 | 0.392 | 0.405 | 0.188 | 0.139 | 0.132 | 0.153 | 0.937 | 0.852 | 0.908 | 0.808 | 0.933 | 0.817 | 0.766 | 0.728
14 | NCI-H1563 |  |  |  |  |  |  |  |  |  |  |  |  |  | 1.15 | 1.2 | 1.11 | 1.11
15 | NCI-H358 | 0.117 | 0.0943 | 0.115 | 0.0994 | 0.102 | 0.123 | 0.125 | 0.127 | 0.125 |  |  |  |  | 0.472 | 0.512 | 0.424 | 0.365
16 | SK-LU-1 | 0.341 | 0.316 | 0.275 | 0.336 | 0.286 | 0.381 | 0.353 | 0.362 | 0.263 | 0.795 | 0.791 | 1.24 | 0.268 | 0.897 | 1.06 | 0.903 | 0.625
17 | NCI-H2347 | 0.581 | 0.634 | 0.476 | 0.597 | 0.541 | 0.401 | 0.435 | 0.388 | 0.361 | 0.752 | 0.403 | 0.271 | 0.228 | 0.748 | 0.633 | 0.47 | 0.436
18 | IA-LM |  |  |  |  |  |  |  |  |  | 0.566 | 0.398 | 0.284 | 0.315 | 0.406 | 0.296 | 0.295 | 0.254
19 | HCC-15 | 0.45 | 0.47 | 0.371 | 0.324 | 0.273 | 0.564 | 0.537 | 0.355 | 0.253 | 0.507 | 0.397 | 0.32 | 0.199 | 0.674 | 0.502 | 0.351 | 0.232
20 | PC-3 [JPC-3] | 0.841 | 0.909 | 0.816 | 0.88 | 0.853 | 0.484 | 0.566 | 0.515 | 0.571 | 0.824 | 0.744 | 0.721 | 0.651 | 0.95 | 0.876 | 0.92 | 0.727
21 | NCI-H1915 | 0.452 | 0.454 | 0.392 | 0.433 | 0.427 | 0.491 | 0.366 | 0.33 | 0.228 | 0.714 | 0.792 | 0.795 | 0.498 | 0.768 | 1.02 | 0.926 | 0.539
22 | HCC-827 | 0.417 | 0.413 | 0.4 | 0.416 | 0.385 | 0.497 | 0.469 | 0.465 | 0.401 | 0.978 | 1.04 | 1.03 | 1.04 | 0.848 | 0.929 | 0.931 | 0.894
